Literature values, collected in US7122627B2, “Lactam inhibitors of Hepatitis C virus NS3 protease” (Bristol-Myers Squibb Company, priority 1999, dated 2006).
[ ]: non-standard residue; d: D form.

Columns and labels:
[1] = target: HCV protease
[2] = system: Hepatitis C virus (HCV)

Ac-Asp-Glu-Dpa-Glu-Cha-Cys-OH
Ki ([1]; reported in Biochemistry 37 (1998)): < 1 µM

Ac-D[dD]IVPC-OH
effectiveness compared with all L isomer ([1]; Llinas-Brunet et al. Bioorg. Med. Chem. Lett. 8 1713-1718 (1998)): more effective than its all “L” isomer

alpha interferon
patients in whom treatment is effective ([2]; current treatment, monotherapy): 15-20%

alpha interferon and ribavirin
patients with sustained efficacy ([2]; combination therapy, Poynard et al. Lancet 1998): 40%
